Laboratory results reported in US20170306042A1, “IMMUNOGENIC MODULATION BY ENDOCRINE DEPRIVATION THERAPY IMPROVES SENSITIVITY OF TUMOR CELLS TO IMMUNE MEDIATED LYSIS” (The United States of America, as represented by the …, priority 2014, published 2017).

How the values were obtained:
Type in all cases: cell-based, human
[1] = system: LNCaP cells; assay: Apoptosis PCR array (96 genes) in LNCaP cells
Experimental: The properties of ADT that induce immunogenic modulation and sensitize prostate tumor cells to immune-mediated attack are novel and have not been previously described. It was hypothesized that modulation of apoptotic genes might be part of the mechanism of action of ADT-induced CTL sensitization. […] In particular, gene expression was assessed using an apoptosis PCR array (SA Biosciences, Valencia, Calif.) as per the manufacturer's instructions. RT-PCR was performed on the 7300 Real-Time PCR System (Applied Biosystems, Carlsbad, Calif.). Where indicated, values were calculated as expression relative to GAPDH, as previously described (Ardiani et al., Cancer Res., 74(7): 1945-1957 (2014))

[2] = system: HCC1806 cells; assay: CTL assay after tamoxifen, HCC1806 targets; conditions: HCC1806 (ER−); 1 μM, 72 hours; E:T 30:1
Experimental: (§1) To determine sensitivity to immune-mediated killing, breast cancer cells treated with vehicle or 1 μM tamoxifen for 72 hours and then used as targets in a CTL assay using CEA-specific or MUC-1 specific CTLs as effector cells at an E:T ratio of 30:1.

[3] = system: ZR75-1 cells; assay: CTL assay after tamoxifen, ZR75-1 targets; conditions: ZR75-1 (ER+); 1 μM, 72 hours; CEA-specific or MUC-1 specific CTLs; E:T 30:1
Experimental: as §1

[4] = system: BT549 cells; assay: CTL assay after tamoxifen, BT549 targets; conditions: BT549 (ER−); 1 μM, 72 hours; E:T 30:1
Experimental: as §1

[5] = system: MCF-7 cells; assay: CTL assay after tamoxifen, MCF-7 targets; conditions: MCF-7 (ER+); 1 μM, 72 hours; CEA-specific or MUC-1 specific CTLs; E:T 30:1
Experimental: as §1

[6] = system: ZR75-1, MCF, BT549 and HCC1806 cells; assay: Viability of breast cancer cells treated with tamoxifen; conditions: 1 μM
Experimental: ZR75-1 (ER+PR+Her2+), MCF (ER+PR+Her2−), BT549 (ER−PR−Her2−), and HCC1806 (ER−PR−Her2−) cells were treated with vehicle or 1 μM tamoxifen to replicate intratumoral concentrations. FIGS. 12A-12D illustrate the fold increase in cell number following treatment. Viability never diminished more than 10% at any given time point.

[7] = apoptosis PCR array, negative = down-regulated

SMILES	number of 96 apoptosis genes down-regulated greater than 2-fold ([1]; RT-PCR array)	number of 96 apoptosis genes up-regulated greater than 2-fold ([1]; RT-PCR array)	CASP1 (Caspase 1) gene expression change [1, 7]	CASP5 gene expression change [1, 7]	CASP8 gene expression change [1, 7]	CD27 gene expression change [1, 7]	DAPK1 gene expression change [1, 7]	HRK gene expression change [1, 7]	NAIP gene expression change [1, 7]	TNFRSF25 (DR3) gene expression change [1, 7]	TNFSF8 gene expression change [1, 7]	NAIP down-regulated ([1]; rounded from Table 1)	CEA-specific killing [2]	CTL-mediated lysis [3]	CEA-specific killing [4]	CTL-mediated lysis [5]	diminution of viability at any given time point [6]
C[C@]12CC[C@H](O)CC1=CC[C@@H]1[C@@H]2CC[C@]2(C)C(c3cccnc3)=CC[C@@H]12 [abiraterone]	14	11	−4.05 fold	−4.22 fold	−2.25 fold	−3.50 fold	−13.73 fold	−8.57 fold	−4.72 fold	−7.41 fold	−7.51 fold	5 fold					
CC/C(=C(\c1ccccc1)c1ccc(OCCN(C)C)cc1)c1ccccc1 [tamoxifen]													improved CEA-specific killing	improved the CTL-mediated lysis	improved CEA-specific killing	improved the CTL-mediated lysis	≤ 10%
